In brackets after ≈: the same amount, converted by molar mass. Read-outs that look alike come from different tables or passages of the source.
Tests used:
MCF10A = assay: MTT viability assay, normal breast epithelial cells; assay type: cell-based, human; conditions: for IC50: Homo sapiens, MCF-10A, MCF10A normal cells; for Cell viability: MCF10A, 24 h
From the text: (§1) Cell lines of different origins were used in the study and grouped as follows: prostate panel (human prostate carcinomas: DU145, derived from metastatic site: brain; grade IV PC3, derived from metastatic site: bone; LNCaP, derived from the metastatic site: lymph node; prostate epithelial, PNT2), colon panel (colorectal adenocarcinomas: HT29, originating from a primary tumor; Duke’s type C DLD-1, with the potential to lymph node metastasis; highly metastatic HCT116; colon epithelial cells CCD 841 CoN), thyroid panel (follicular thyroid carcinoma FTC133, anaplastic thyroid carcinoma 8505C, papillary thyroid carcinoma TPC-1, normal thyroid follicular epithelial Nthy-ori 3–1), breast panel (ER-positive breast adenocarcinoma MCF7, ER-negative breast adenocarcinoma MDA-MB-231, breast epithelial MCF10A), brain panel (neuroblastoma SH-SY5Y, glioblastoma U-87 MG, murine astrocytes C8D1A). All cell lines were purchased from Merck (Darmstadt, Germany).
(§2) Cells were grown under standard conditions (37 °C, 5% CO2) and culture media (DMEM/F12 for PNT2, PC3, FTC133, 8505 C, MDA-MB-231, TPC-1; DMEM Low Glucose for DU145; DMEM High Glucose for HCT116, DLD-1, SH-SY5Y, U87MG, C8D1A; MEM with NEAA for MCF7; MEM for CCD 841 CoN; McCoy’s for HT29; RPMI1640 with sodium pyruvate for LNCaP; DMEM/F12 with 20 ng/mL epidermal growth factor (EGF), 10 μg/mL insulin, 0.5 μg/mL hydrocortisone, 100 ng/mL cholera toxin) for MCF10A), supplemented with 10% fetal bovine serum (FBS) or 5% donor horse serum for MCF10A, and 1% antibiotics solution (10,000 U penicillin and 10 mg streptomycin/mL). The tested substances were prepared as 10 mg/mL stock solutions in DMSO and further diluted in the culture media to the working concentrations. Cells were treated with UA enantiomers at the concentration range of 0–50 µg/mL. The influence of DMSO on cell viability was also examined, with the final concentration […], and no toxic effect was noted.
(§3) The cells were seeded onto 96-well plates at a density of 1.5 × 10^4 cells/well. After 24 h UA enantiomers were added. Cell viability was determined after 24, 48, and 72 h by the MTT assay, as described previously. Doxorubicin was used as a reference cytostatic drug. All analyses were performed in triplicate; cell viability was expressed as % of control, untreated cells (mean ± SD), and IC50 values (concentration at which cell viability is inhibited by 50%), if possible.

DLD-1 = assay: MTT viability assay, DLD-1 colon cancer cells; assay type: cell-based, human; conditions: for Cell viability: DLD-1, 24 h; for IC50: Homo sapiens
From the text: as §1, §2, §3

glioblastoma U251 cells = system: glioblastoma U251 cells; set-up: method as in PMID 18558490; conditions: U251, 72 h, cited from earlier work
FTC133 = assay: MTT viability assay, FTC133 follicular thyroid carcinoma cells; assay type: cell-based, human; conditions: for Cell viability: FTC-133, 24 h; for IC50: Homo sapiens, FTC-133
From the text: as §1, §2, §3
(§4) The selectivity index (SI) was calculated, if possible, by dividing the IC50 value obtained for non-cancerous cells line by the IC50 values obtained for appropriate cancer cell line, as described previously. […] The values above 3 indicate good selectivity.

SH-SY5Y = assay: MTT viability assay, neuroblastoma SH-SY5Y cells; assay type: cell-based, human; conditions: SHSY5Y, 24 h
From the text: as §1, §2, §3

TPC-1 = assay: MTT viability assay, TPC-1 papillary thyroid carcinoma cells; assay type: cell-based, human; conditions: for IC50: Homo sapiens, TPC1; for Cell viability: TPC-1, 24 h
From the text: as §1, §2, §3, §4

DU145 cells = conditions: cited from earlier work
HepG2 cells = system: HepG2 cells; set-up: method as in PMID 40368021; conditions: cited from earlier work
HT29 cells = conditions: cited from earlier work
8505C = assay: MTT viability assay, 8505C anaplastic thyroid carcinoma cells; assay type: cell-based, human; conditions: for Cell viability: 24 h; for IC50: Homo sapiens
From the text: as §1, §2, §3

LNCaP = assay: MTT viability assay, LNCaP prostate cancer cells; assay type: cell-based, human; conditions: for Cell viability: 24 h; for IC50: Homo sapiens
From the text: as §1, §2, §3

CC(=O)C1=C(O)C=C2Oc3c(C(C)=O)c(O)c(C)c(O)c3[C@@]2(C)C1=O [UA(+), (+)-usnic acid]
IC50 (MCF10A; 48 h): > 50 µg/mL
IC50 (MCF10A; 72 h): 44.8 µg/mL (≈ 130 µM)
Cell viability (MCF10A; 2.5 µg/mL): 95.69 % of control
Cell viability (MCF10A; 5 µg/mL): 98.53 % of control
Cell viability (MCF10A; 10 µg/mL): 94.31 % of control
Cell viability (MCF10A; 20 µg/mL): 97.06 % of control
Cell viability (MCF10A; 30 µg/mL): 97.25 % of control
Cell viability (MCF10A; 40 µg/mL): 97.35 % of control
Cell viability (MCF10A; 50 µg/mL): 94.02 % of control
Cell viability (DLD-1; 2.5 µg/mL): 96.51 % of control
Cell viability (DLD-1; 5 µg/mL): 89.29 % of control
Cell viability (DLD-1; 10 µg/mL): 75.63 % of control
Cell viability (DLD-1; 20 µg/mL): 82.11 % of control
Cell viability (DLD-1; 30 µg/mL): 71.08 % of control
Cell viability (DLD-1; 40 µg/mL): 68.28 % of control
Cell viability (DLD-1; 50 µg/mL): 68.46 % of control
IC50 (DLD-1; DLD-1, 48 h): 26.1 µg/mL (≈ 75.8 µM)
IC50 (DLD-1; DLD-1, 72 h): 19.6 µg/mL (≈ 56.9 µM)
IC50 (glioblastoma U251 cells; recalculated from µM by the authors): 6.7 µg/mL
IC50 (glioblastoma U251 cells; read-out: IC50): 19.5 µM
Cell viability (FTC133; 2.5 µg/mL): 92.33 % of control
Cell viability (FTC133; 5 µg/mL): 89.00 % of control
Cell viability (FTC133; 10 µg/mL): 89.83 % of control
Cell viability (FTC133; 20 µg/mL): 93.83 % of control
Cell viability (FTC133; 30 µg/mL): 74.75 % of control
Cell viability (FTC133; 40 µg/mL): 75.75 % of control
Cell viability (FTC133; 50 µg/mL): 78.08 % of control
IC50 (FTC133; FTC133, 48 h): > 50 µg/mL
IC50 (FTC133; FTC133, 72 h): 35.1 µg/mL (≈ 102 µM)
selectivity index (SI) (FTC133; IC50 Nthy ori 3-1 / IC50 FTC133, 72 h): 0.95
Cell viability (SH-SY5Y; 2.5 µg/mL): 99.49 % of control
Cell viability (SH-SY5Y; 5 µg/mL): 97.56 % of control
Cell viability (SH-SY5Y; 10 µg/mL): 97.95 % of control
Cell viability (SH-SY5Y; 20 µg/mL): 96.15 % of control
Cell viability (SH-SY5Y; 30 µg/mL): 95.77 % of control
Cell viability (SH-SY5Y; 40 µg/mL): 92.95 % of control
Cell viability (SH-SY5Y; 50 µg/mL): 96.54 % of control
IC50 (TPC-1; TPC-1, 48 h): > 50 µg/mL
IC50 (TPC-1; TPC-1, 72 h): 28.2 µg/mL (≈ 81.9 µM)
selectivity index (SI) (TPC-1; IC50 Nthy ori 3-1 / IC50 TPC-1, 72 h): 1.18
Cell viability (TPC-1; 2.5 µg/mL): 101.62 % of control
Cell viability (TPC-1; 5 µg/mL): 105.96 % of control
Cell viability (TPC-1; 10 µg/mL): 105.31 % of control
Cell viability (TPC-1; 20 µg/mL): 97.02 % of control
Cell viability (TPC-1; 30 µg/mL): 95.96 % of control
Cell viability (TPC-1; 40 µg/mL): 91.23 % of control
Cell viability (TPC-1; 50 µg/mL): 87.50 % of control
IC50 (DU145 cells; DU145, 48 h, recalculated from µM by the authors): 14.5 µg/mL
IC50 (DU145 cells; DU145, 48 h, read-out: IC50): 42.1 µM
IC50 (DU145 cells; DU145, 72 h, recalculated from µM by the authors): 19.7 µg/mL
IC50 (DU145 cells; DU145, 72 h, read-out: IC50): 57.4 µM
IC50 (hepatotoxicity) (HepG2 cells; HepG2, 48 h): 28.2 µg/mL (≈ 81.9 µM)
IC50 (hepatotoxicity) (HepG2 cells; HepG2, 72 h): 24.4 µg/mL (≈ 70.9 µM)
IC50 (HT29 cells; HT29, recalculated from µM by the authors, ref 21): 24.1 µg/mL
IC50 (HT29 cells; HT29, recalculated from µM by the authors, ref 22): 34.3 µg/mL
IC50 (HT29 cells; HT29, ref 21, read-out: IC50): 70 µM
IC50 (HT29 cells; HT29, ref 22, read-out: IC50): 99.7 µM
Cell viability (8505C; 2.5 µg/mL): 102.52 % of control
Cell viability (8505C; 5 µg/mL): 103.05 % of control
Cell viability (8505C; 10 µg/mL): 98.80 % of control
Cell viability (8505C; 20 µg/mL): 102.26 % of control
Cell viability (8505C; 30 µg/mL): 99.47 % of control
Cell viability (8505C; 40 µg/mL): 102.26 % of control
Cell viability (8505C; 50 µg/mL): 108.63 % of control
IC50 (8505C; 48 h): > 50 µg/mL
IC50 (8505C; 72 h): > 50 µg/mL
Cell viability (LNCaP; 2.5 µg/mL): 87.68 % of control
Cell viability (LNCaP; 5 µg/mL): 81.45 % of control
Cell viability (LNCaP; 10 µg/mL): 79.71 % of control
Cell viability (LNCaP; 20 µg/mL): 75.51 % of control
Cell viability (LNCaP; 30 µg/mL): 71.45 % of control
Cell viability (LNCaP; 40 µg/mL): 69.13 % of control
Cell viability (LNCaP; 50 µg/mL): 69.71 % of control
IC50 (LNCaP; 48 h): > 50 µg/mL
IC50 (LNCaP; 72 h): > 50 µg/mL

— publication PMC12298648, “An Evaluation of the Cytotoxicity and Safety Profile of Usnic Acid for a Broad Panel of Human Cancers and Normal Cells with Respect to Its Enantiospecificity” (Molecules, 2025)
